Laboratory results reported in patent US10682337B2, “Compositions and methods for treatment and prevention of pyrexia in horses” (Kindred Biosciences, Inc., priority 2015, dated 2020).

Columns and labels:
Format in all cases: in vivo
[1] = tested on: horses with naturally occurring respiratory infections; test: pilot efficacy study of orally administered metamizole in horses with fever; settings: of 8 horses; oral gel 30 mg/kg; ≥2° F. decrease or ≤101.0° F. 6 hours following dose
Description: Metamizole, as an active ingredient, was formulated into a simple gel for oral administration and dosed at 30 mg/kg body weight. Eight horses with naturally occurring respiratory infections were provided. The temperatures of the horses were monitored. […] Horses were treated up to three times with an oral formulation of metamizole sodium. Rectal temperature was monitored to determine response to treatment. […] Pyrexia returned at timepoints appropriate for the drug's plasma residence time.

[2] = tested on: horses with clinical signs of infectious disease; test: two-phase efficacy study of oral metamizole in mature horses
Description: A two-phase study to determine the efficacy of oral metamizole in mature horses was conducted as follows. In the first phase, 9 horses with clinical signs of infectious disease were enrolled.
In the second phase, 8 horses with clinical signs of infectious disease were enrolled.
The oral formulation of metamizole used for both phases was an aqueous formulation comprising 500 mg/ml metamizole sodium monohydrate, 10 mg/ml xanthan gum, and 100 mg/ml propylene glycol, and 15 mg/ml benzyl alcohol. The formulation was adjusted to pH 7.8 using sodium hydroxide.
For both phases, rectal temperature was monitored at pre-determined intervals. Horses were redosed based on rectal temperature and minimum dosing intervals up to five additional times, for a total of six doses. Fever was required for redose with metamizole.

[3] = oral bioavailability of metamizole in horses (plasma 4-MAA); settings: four horses; 30 mg/kg; water slurry via nasogastric intubation vs IV Vetalgina; plasma 4-MAA up to 48 hours; FIG. 1
Description: The commercially available Vetalgina product (Intervet) for IV administration (sodium salt) was administered in accordance with the manufacturer's instructions. Plasma was collected prior to administration and at specified intervals for up to 48 hours. Horses underwent a washout period, and then were administered the active ingredient (metamizole sodium monohydrate) in a water slurry to the horses' stomach via nasogastric intubation. Plasma was collected again prior to […] administration and at specified intervals for up to 48 hours. Horses were treated with matched doses on a milligram per kilogram basis for both test articles. Plasma was assayed for the primary metabolite of metamizole sodium, 4-methylaminoantipyrine (4-MAA).

Cc1c(N(C)CS(=O)(=O)O)c(=O)n(-c2ccccc2)n1C [metamizole sodium]
horses with clinically significant improvement in rectal temperature [1]: 8

Cc1c(N(C)CS(=O)(=O)O)c(=O)n(-c2ccccc2)n1C [metamizole sodium monohydrate]
Adverse events ([2]; 30 and 40 mg/kg oral, up to six doses): consistent with the underlying infections required for enrollment | horses defined as primary responders after Dose 1 ([2]; Phase 2, 40 mg/kg oral): 7/8 | horses defined as primary responders after Dose 1 ([2]; phase 1, 30 mg/kg oral): 7/9

Cc1c(N(C)CS(=O)(=O)O)c(=O)n(-c2ccccc2)n1C [metamizole, [(2,3-dihydro-1,5-dimethyl-3-oxo-2-phenyl-1H-pyrazol-4-yl)methylamino] methanesulfonic acid]
bioavailability, orally vs parenterally administered metamizole [3]: comparable bioavailability
